The text below walks through data of US20170050939A1, “SMALL MOLECULE INHIBITORS OF G PROTEIN COUPLED RECEPTOR 6 KINASE POLYPEPTIDES” (Mayo Foundation for Medical Education and Research, priority 2014, published 2017).

Structures are written as SMILES.

T1 sequence (P43250 whole entry): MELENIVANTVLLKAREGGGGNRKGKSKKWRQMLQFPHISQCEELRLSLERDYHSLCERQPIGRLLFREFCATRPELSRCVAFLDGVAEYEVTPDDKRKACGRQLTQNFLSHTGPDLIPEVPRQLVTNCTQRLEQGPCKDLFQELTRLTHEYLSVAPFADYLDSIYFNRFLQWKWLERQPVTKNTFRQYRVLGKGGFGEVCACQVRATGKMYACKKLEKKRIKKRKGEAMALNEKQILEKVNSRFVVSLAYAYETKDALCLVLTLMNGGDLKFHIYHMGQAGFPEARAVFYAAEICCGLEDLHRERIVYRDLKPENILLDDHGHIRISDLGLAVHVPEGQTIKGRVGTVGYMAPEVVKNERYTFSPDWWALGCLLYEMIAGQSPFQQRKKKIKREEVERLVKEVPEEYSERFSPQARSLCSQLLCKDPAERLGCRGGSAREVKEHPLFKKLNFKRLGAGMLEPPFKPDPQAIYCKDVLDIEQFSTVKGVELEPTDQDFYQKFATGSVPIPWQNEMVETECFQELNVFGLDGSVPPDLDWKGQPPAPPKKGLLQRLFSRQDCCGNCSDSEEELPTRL

The first assay concerns the target T1, GRK6, recombinant full-length GST-tagged human protein (Homo sapiens, UniProt P43250).
T1 construct: GRK6, recombinant full-length GST-tagged human protein; GST
In words: GRK6 IC50 determination (8-point concentration-response). It is filed as biochemical.
Conditions: not given
From the text:
Two hundred forty compounds were further characterized by determining IC50 values in a GRK6 assay. This screen has been previously described in WO 2013/063458, which is incorporated by reference in its entirety herein.
What is called IC50 is the concentration needed to halve the response being measured. Turning to `O=C(O)CSc1nnc(-c2cccc(C(=O)Nc3ccc(Cl)cc3)c2)[nH]1` [Compound 148], the IC50 was 11700 nM.

As to `Cc1cc(-c2cc(-c3nnc(SCC(=O)O)[nH]3)cc([N+](=O)[O-])c2)cc2ccn(C)c12` [Compound 231], the IC50 came to 150 nM.

Regarding `Cc1noc(C)c1-c1cc(-c2ccc3ccccc3c2)cc(-c2nnc(SCC(=O)O)[nH]2)c1` [Compound 65], the IC50 was determined as 1020 nM. In the case of `Cc1cc2cc(-c3cc(-c4nnc(SCC(=O)O)[nH]4)cc([N+](=O)[O-])c3)ccc2n1C` [Compound 234], the IC50 amounted to 267 nM. Turning to `Cc1c(-c2cc(-c3nnc(SCC(=O)O)[nH]3)cc([N+](=O)[O-])c2)cnn1C` [Compound 83], the half-inhibitory concentration (IC50) amounted to 797 nM. As for `O=C(O)CSc1nnc(-c2ccc3[nH]cnc3c2)[nH]1` [Compound 125], the IC50 was 6450 nM. With `CS(=O)(=O)Nc1ccc(-c2cc(-c3nnc(SCC(=O)O)[nH]3)cc([N+](=O)[O-])c2)cc1` [Compound 47], the IC50 came to 473 nM. As for `O=C(O)CSc1nnc(-c2cc(-c3ccc4ccccc4c3)cc(-c3cnccc3F)c2)[nH]1` [Compound 58], the IC50 was determined as 751 nM. Consider `COc1ccc(-c2cc(-c3ccc4ccccc4c3)cc(-c3nnc(SCC(=O)O)[nH]3)c2)cn1` [Compound 66], for which the IC50 amounted to 1080 nM. `O=C(O)CSc1nnc(-c2cc(Br)cc([N+](=O)[O-])c2)n1CC(=O)O` [Compound 120]: the IC50 turned out to be 5060 nM. Regarding `O=C(O)CSc1nnc(-c2cc(-c3cncc(F)c3)cc(-c3ccc4ccccc4c3)c2)[nH]1` [Compound 55], the IC50 is 631 nM. `Cc1nn(C)cc1-c1cc(-c2nnc(SCC(=O)O)[nH]2)cc([N+](=O)[O-])c1` [Compound 79]: the IC50 turned out to be 750 nM. Take `O=C(O)CSc1nnc(-c2cccc3c2OCCCO3)[nH]1` [Compound 197]: the concentration for half-maximal inhibition (IC50) was > 100000 nM.

On to `Cn1ccc2cc(-c3cc(-c4nnc(SCC(=O)O)[nH]4)cc([N+](=O)[O-])c3)ccc21` [Compound 3], for which the IC50 stood at 60 nM. For the compound `O=C(O)CSc1nnc(-c2cc(C(=O)Nc3ccccc3)cc([N+](=O)[O-])c2)[nH]1` [Compound 82], the IC50 stood at 761 nM. Turning to `CC(C)CNC(=O)c1cc(-c2nnc(SCC(=O)O)[nH]2)cc([N+](=O)[O-])c1` [Compound 100], the IC50 was determined as 2750 nM.

Take `O=C(O)CSc1nnc(-c2cccc(C(=O)Nc3ccc4c(c3)NC(=O)CC4)c2)[nH]1` [Compound 160]: the IC50 is 17300 nM. `O=C(O)CSc1nnc(-c2cccc3c2OCO3)[nH]1` [Compound 164]: the IC50 turned out to be 18500 nM. On to `O=C(O)CSc1nnc(-c2cc(-c3cccc(O)c3)cc([N+](=O)[O-])c2)[nH]1` [Compound 24], for which the IC50 was 212 nM. In the case of `CCn1ccc2cc(-c3cc(-c4nnc(SCC(=O)O)[nH]4)cc([N+](=O)[O-])c3)ccc21` [Compound 11], the IC50 turned out to be 118 nM. `COc1ncccc1-c1cc(-c2ccc3ccccc3c2)cc(-c2nnc(SCC(=O)O)[nH]2)c1` [Compound 68]: the IC50 worked out at 1580 nM.

For `COc1ccc2cc(-c3nnc(SCC(=O)O)[nH]3)ccc2c1` [Compound 76], the IC50 was 653 nM. For the compound `Cc1ccc2cc(-c3cc(-c4nnc(SCC(=O)O)[nH]4)cc([N+](=O)[O-])c3)ccc2c1` [Compound 238], the IC50 is 442 nM. Regarding `O=C(O)CSc1nnc(-c2cc(-c3ccc4ccccc4c3)cc(C3C=NN=C3)c2)[nH]1` [Compound 28], the half-inhibitory concentration (IC50) was determined as 262 nM. With `CNS(=O)(=O)c1cccc(-c2cc(-c3nnc(SCC(=O)O)[nH]3)cc([N+](=O)[O-])c2)c1` [Compound 49], the IC50 was determined as 507 nM. Consider `O=C(O)CSc1nnc(-c2cccc(C(=O)Nc3ccc4c(c3)NC(=O)C4)c2)[nH]1` [Compound 105], for which the 50% inhibitory concentration (IC50) turned out to be 3330 nM.

On to `O=C(O)CSc1nnc(-c2cc(-c3cc[nH]n3)cc([N+](=O)[O-])c2)[nH]1` [Compound 78], for which the IC50 was found to be 742 nM.

Consider `CCCn1ccc2cc(-c3cc(-c4nnc(SCC(=O)O)[nH]4)cc([N+](=O)[O-])c3)ccc21` [Compound 25], for which the IC50 worked out at 227 nM. Consider `Cn1nc(C(F)(F)F)cc1-c1cc(-c2nnc(SCC(=O)O)[nH]2)cc([N+](=O)[O-])c1` [Compound 97], for which the IC50 amounted to 2490 nM. Take `COc1cncc(-c2cc(-c3ccc4ccccc4c3)cc(-c3nnc(SCC(=O)O)[nH]3)c2)c1` [Compound 46]: the IC50 worked out at 461 nM. As to `Cn1ccc2cc(-c3cc(-c4n[nH]c(SCC(=O)O)n4)cc([N+](=O)[O-])c3)cc(Cl)c21` [Compound 229], the half-maximal inhibitory concentration (IC50) came to 114 nM. As to `O=C(O)CSc1nnc(-c2ccc3c(c2)OCCO3)[nH]1` [Compound 154], the IC50 was found to be 13400 nM. For `Cc1nn(C)c(C)c1-c1cc(-c2nnc(SCC(=O)O)[nH]2)cc([N+](=O)[O-])c1` [Compound 93], the IC50 worked out at 1570 nM.

On to `Cn1ccc2cc(-c3cc(-c4nnc(SCC(=O)O)[nH]4)cc(C(F)(F)F)c3)ccc21` [Compound 239], for which the IC50 was 729 nM. Regarding `O=C(O)CSc1nnc(-c2cc(-c3ccc(-c4ccn[nH]4)cc3)cc([N+](=O)[O-])c2)[nH]1` [Compound 2], the IC50 stood at 58.8 nM. Still for that read-out and setting: then `CNC(=O)c1cccc(NC(=O)c2cccc(-c3nnc(SCC(=O)O)[nH]3)c2)c1` [Compound 167], with 20400 nM.

Still in this assay, the particulars now being: 20 nM GRK6, 12 μM ATP (Km), 1 μM Peptide 216, 7 h incubation.
As to `O=C(O)CSc1nnc(-c2cccc(F)c2F)[nH]1` [Compound 145], the IC50 stood at 10700 nM.

With `COc1cc(-c2nnc(SCC(=O)O)[nH]2)cc(OC)c1O` [Compound 140], the IC50 stood at 8830 nM.

With `O=C(O)CSc1nnc(-c2cccc(-c3ccc4ccccc4c3)c2)[nH]1` [Compound 39], the IC50 was 417 nM.

With `O=C(O)CSc1nnc(-c2cc(O)ccc2O)[nH]1` [Compound 123], the IC50 was found to be 6160 nM.

With `COc1cc(-c2nnc(SCC(=O)O)[nH]2)cc(OC)c1OC` [Compound 137], the half-inhibitory concentration (IC50) was determined as 8230 nM. In the case of `Cc1cc(C=O)c(O)c(-c2nnc(SCC(=O)O)[nH]2)c1` [Compound 185], the IC50 was 45300 nM. Regarding `COc1ccc(-c2nnc(SCC(=O)O)[nH]2)cc1O` [Compound 152], the IC50 came out at 13300 nM.

In the case of `O=C(O)CSc1nnc(-c2cccc(F)c2)[nH]1` [Compound 115], the IC50 came out at 4700 nM. As to `COc1cc(Cl)cc(-c2cccc(-c3nnc(SCC(=O)O)[nH]3)c2)c1` [Compound 41], the IC50 came to 426 nM. As for `COc1cc(-c2nnc(SCC(=O)O)[nH]2)ccc1OC(=O)C1CC1` [Compound 139], the IC50 is 8830 nM. In the case of `O=C(O)CSc1nnc(-c2cccc(Cn3cccn3)c2)[nH]1` [Compound 159], the IC50 was 16200 nM. For the compound `O=C(O)CSc1nnc(-c2cccc(C(F)(F)F)c2)[nH]1` [Compound 101], the IC50 was 3020 nM. As for `COc1ccc(-c2nnc(SCC(=O)O)[nH]2)c(O)c1` [Compound 169], the IC50 was 20900 nM. Turning to `COC(=O)c1ccc(-c2nnc(SCC(=O)O)[nH]2)cc1` [Compound 142], the IC50 amounted to 9560 nM. The same measure, in the same setting: as for `COc1ccc(-c2nnc(SCC(=O)O)[nH]2)cc1C` [Compound 118], the figure is 4990 nM. As for `O=C(O)CSc1nnc(-c2cc(Br)ccc2O)[nH]1` [Compound 89], the IC50 turned out to be 1050 nM. For the compound `O=C(O)CSc1nnc(-c2cccc(-c3cnccn3)c2)[nH]1` [Compound 126], the IC50 is 6500 nM. For `Cc1ccc(O)c(-c2nnc(SCC(=O)O)[nH]2)c1` [Compound 99], the IC50 stood at 2710 nM. On the same count and under the same terms, then `O=C(O)CSc1nnc(-c2cc(C(=O)O)ccc2F)[nH]1` [Compound 191], with 81700 nM.
